Target: T1, CDK4/Cyclin D1 (Homo sapiens, UniProt P11802)
T1 construct: made in house; host or cells: insect cells (crude cell lysate)
Assay: Cyclin D1/cdk4 phosphoRb in vitro kinase assay
Format: biochemical
Conditions: for IC50: insect cell lysates expressing cyclin D1 and cdk4, GST-Rb substrate, 32P-ATP, read-out: IC50, inhibition of CDK4/Cyclin D1; for relative potency of inhibition of CDK4/cyclin D1: compared with Compound 4 and Compound 1 (esters or ethers)
Excerpt: The efficacy of a compound in inhibiting the activity of cyclin-dependent kinases can be determined by several methods well known in the art, such as a kinase assay, as described in the Examples section herein, or as described in Losiewics, M. D., et al. (1994) Biochem. Biophys. Res. Commun. 201, 589. Thus, a complex containing the cyclin-dependent kinase and a cyclin is first isolated either from a recombinant source, or immunoprecipitated from cells synchronized at the stage at which a particular cyclin-dependent kinase is present at high levels in the cell. The immunoprecipitates are then incubated in the presence of radiolabelled ATP and an appropriate substrate with various amounts of the inhibitor. The amount of radioactivity associated with the substrate protein can then be determined by various methods well known in the art. The substrate used for the kinase assay will depend on the specific kinase. Typically, histone H1 or CDK1 S1 is used as a substrate for the CDC2 kinase and the retinoblastoma protein is used as a substrate in a kinase assay for CDK4. The kinases, cyclins, and substrates used in the in vitro kinase assay can be proteins isolated from mammalian cells, or alternatively, they can be proteins produced recombinantly, such as in E. Coli.
This example is an illustration of the cyclin-dependent kinase inhibitory activity of the compounds of the invention. The kinase inhibitory activity of several compounds of the invention was determined using an in vitro kinase assay in which the kinase activity of the CDK4 kinase was measured using a Cyclin D1/cdk4 phosphoRb Assay. Briefly, the assay employs cell lysates from insect cells expressing cyclin D1 and cdk4 kinase. The cyclin/cdk lysate is combined in a microtitre-type plate along with a kinase compatible buffer, ^32 P-labeled ATP, a GST-Rb fusion protein, and the test agent. The kinase reaction is allowed to proceed with the radiolabeled ATP, then effectively stopped by the addition of a large excess of unlabeled ATP. The GST-Rb protein is sequestered on a GSH-Sepharose bead suspension, washed, resuspended in scintilant, and ^32 P activity detected in a scintillation counter. The concentration of compound at which 50% of the kinase activity was blocked (IC50) was calculated for each compound.

T1 sequence (P11802 whole entry, species assumed): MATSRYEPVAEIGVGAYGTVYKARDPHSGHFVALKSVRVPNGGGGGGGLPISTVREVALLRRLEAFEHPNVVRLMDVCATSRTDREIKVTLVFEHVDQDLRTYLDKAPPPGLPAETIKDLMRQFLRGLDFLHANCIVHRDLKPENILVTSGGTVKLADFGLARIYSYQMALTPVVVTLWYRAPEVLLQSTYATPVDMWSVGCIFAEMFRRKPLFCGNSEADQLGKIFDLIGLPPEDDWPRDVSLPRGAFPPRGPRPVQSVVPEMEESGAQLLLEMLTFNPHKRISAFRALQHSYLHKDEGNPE
T1 sequence (P24385 whole entry partner, species assumed): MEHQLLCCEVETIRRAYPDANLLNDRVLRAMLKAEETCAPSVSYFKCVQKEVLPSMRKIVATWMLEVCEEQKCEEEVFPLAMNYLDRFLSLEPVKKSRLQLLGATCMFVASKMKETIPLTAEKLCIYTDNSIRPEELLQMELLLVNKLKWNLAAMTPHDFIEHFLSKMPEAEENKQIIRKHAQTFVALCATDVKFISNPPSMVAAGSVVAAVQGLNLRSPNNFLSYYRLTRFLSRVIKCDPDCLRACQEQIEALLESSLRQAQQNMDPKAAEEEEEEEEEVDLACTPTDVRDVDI

Row | Structure (SMILES) | IC50 | relative potency of inhibition of CDK4/cyclin D1
1 | COc1cc(OC)c2c(=O)cc(-c3ccccc3Cl)oc2c1C1=CCN(C)CC1 [Compound 1] | < 250 µM | 
2 | CN1CC=C(c2c(O)cc(O)c3c(=O)cc(-c4ccccc4Cl)oc23)CC1 [Compound 3] | < 50 µM | much more potent inhibitors of CDK4/cyclin D1
3 | COc1cc(OC)c2c(=O)cc(-c3ccccc3Cl)oc2c1C1CCN(C)CC1=O (centres unmarked) [Compound 4] | 230 µM | 
4 | CN1CCC(c2c(O)cc(O)c3c(=O)cc(-c4ccccc4Cl)oc23)C(=O)C1 (centres unmarked) [Compound 5] | < 50 µM | much more potent inhibitors of CDK4/cyclin D1

Second part, led by results:

Row | IC50 | Structure (SMILES) | relative potency of inhibition of CDK4/cyclin D1
5 | < 250 µM | COc1cc(OC)c2c(=O)cc(-c3ccccc3Cl)oc2c1[C@@H]1CN(C)CC[C@@H]1O (relative stereo) [Compound 13] | 
6 | < 150 µM | CN1CC[C@H](O)[C@H](c2c(O)cc(O)c3c(=O)cc(-c4ccccc4Cl)oc23)C1 (relative stereo) [Compound 14] | 

Reference: patent US5733920A, “Inhibitors of cyclin dependent kinases” (Mitotix, Inc., priority 1995, dated 1998)
